{"source": "patent US20080234188A1", "about": "“Antimicrobial Peptides” (The Hospital for Sick Children, priority 2001, published 2008)", "key": {"[1]": {"tested_on": "C498: E. coli, wild type strain", "format": "cell-based", "settings": "C498: , wild type strain", "procedure,_shortened": "(§1)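 Broth microdilution in Mueller Hinton Broth, 2−7×10^5 CFU/ml, peptides added from 10× stocks serially diluted in 0.01% acetic acid, 0.2% BSA. Incubated at 37° C for 18-24 hours, rechecked at 40-48 hours; growth read visually and at 600 nm.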"}, "[2]": {"tested_on": "C500: E. coli, antibiotic strain", "format": "cell-based", "settings": "C500: , antibiotic strain", "procedure,_shortened": "as §1"}, "[3]": {"tested_on": "Corynebacterium xerosis (C875)", "format": "cell-based", "procedure,_shortened": "(§2)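 Broth microdilution in Mueller Hinton Broth, inoculum 2−7×10^5 CFU/ml. Peptides serially doubled in 0.01% acetic acid, 0.2% BSA and added at 10× final concentration. Incubation 37° C for 18-24 h, rechecked at 40-48 h; growth read visually and at 600 nm.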"}, "[4]": {"tested_on": "Staphylococcus epidermidis (C621)", "format": "cell-based", "settings": "C621", "procedure,_shortened": "as §2"}, "E. coli DC2": {"tested_on": "E. coli DC2", "assay": "Assay of antibacterial activity (MIC), E. coli DC2", "format": "cell-based, Escherichia coli", "procedure,_shortened": "(§3)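 Broth microdilution MIC in Mueller Hinton broth, 2−7×10^5 CFU/ml inoculum from overnight cultures. Peptides serially doubled in 0.01% acetic acid, 0.2% BSA at 10× test concentration. Incubation 37° C for 18-24 h, rechecked at 40-48 h; growth read visually and at 600 nm.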"}, "E. coli UB1005": {"tested_on": "E. coli UB1005", "format": "cell-based, Escherichia coli", "settings": "UB1005", "procedure,_shortened": "as §3"}, "E. coli ATCC25922": {"tested_on": "E. coli ATCC25922", "format": "cell-based", "text": "(§4) The bacterial strains used were E. coli C498, E. coli C500, Escherichia coli UB1005 and its antibiotic supersusceptible derivative DC2 (22); a clinical isolate of Staphylococcus epidermidis (C621); coryneform bacterial strain Corynebacterium xerosis (C875); and E. coli ATCC 25922, Staphylococcus aureus ATCC 25923, Enterococcus faecalis ATCC 29212, Bacillus subtilis ATCC 6633 and Pseudomonas aeruginosa ATCC 27853, all from American Type Culture Collection.\n(§5) Peptide antibacterial activity was assessed by the method of R. Hancock et al. (Wu & Hancock (1999), J. Biol. Chem., v. 274, pp. 29-35). Test strains of bacteria from Mueller Hinton agar (MHA) plates were inoculated into 5 ml Mueller Hinton Broth (MHB) in tubes and grown overnight at 37° C. on a shaker (180 rpm). Serial dilutions of test peptides (at 10 times the required test concentrations) were made in 0.01% acetic acid, 0.2% BSA, in polypropylene or coated glass tubes as follows: the test peptide was (a) dissolved in distilled water at 20 times the required maximum concentration (enough final volume for all tests to be performed on a given day); (b) diluted into an equal volume of 0.02% acetic acid, 0.4% BSA to give 10 times the required maximum concentration; (c) serial doubling dilutions were performed in 0.01% acetic acid, 0.2% BSA to provide serial dilutions of peptides at 10 times the required test concentrations, e.g., 640, 320, 160, . . . 2.5 μg/ml. (No deleterious effects of long-term storage of peptides in these media have been detected). Overnight bacterial cultures were diluted in MHB to give 2−7×10^5 colony forming units/ml. Bacterial suspension (100 μl) was dispensed in each well; controls without bacteria were maintained in parallel. To each well was added 11 μl of 10× test peptide and plates were incubated at 37° C. for 18-24 hours, and checked again at 40-48 hours. Plates were read visually and at 600 nm in a microplate reader (Molecular Devices).\n(§6) A further number of the peptides of the invention were tested for antimicrobial activity against a range of Gram-positive and Gram-negative bacteria by the assay described immediately before Example 1."}, "P. aeruginosa ATCC27853": {"tested_on": "P. aeruginosa ATCC27853", "format": "cell-based, Pseudomonas aeruginosa", "text": "as §4, §5, §6"}, "S. aureus ATCC25923": {"tested_on": "S. aureus ATCC25923", "format": "cell-based, Staphylococcus aureus", "text": "as §4, §5, §6"}, "E. faecalis ATCC29212": {"tested_on": "E. faecalis ATCC29212", "format": "cell-based, Enterococcus faecalis", "text": "as §4, §5, §6"}, "B. subtilis ATCC6633": {"tested_on": "B. subtilis ATCC6633", "format": "cell-based, Bacillus subtilis", "text": "as §4, §5, §6"}, "Human RBC": {"tested_on": "Human RBC", "format": "cell-based", "procedure,_shortened": "(§7)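 Washed rabbit or human erythrocytes (4% v/v in PBS pH 7.3) incubated with peptide dilutions 1 h at 37° C. Hemoglobin release read at 540 nm in supernatant, relative to PBS control and 0.1% Triton X-100 as 100% lysis; peptides tested at […].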"}, "Rabbit RBC": {"tested_on": "Rabbit RBC", "format": "cell-based", "procedure,_shortened": "as §7"}}, "note": "Where a SMILES comes first, the peptide text is derived from it."}
{"smiles": "C[C@H](NC(=O)[C@H](C)NC(=O)[C@H](C)NC(=O)[C@H](Cc1ccccc1)NC(=O)[C@H](C)NC(=O)[C@H](C)NC(=O)[C@H](C)NC(=O)[C@H](CCCCN)NC(=O)[C@@H](N)CCCCN)C(=O)N[C@@H](C)C(=O)N[C@@H](C)C(=O)N[C@@H](Cc1ccccc1)C(=O)N[C@@H](C)C(=O)N[C@@H](C)C(=O)N[C@@H](Cc1c[nH]c2ccccc12)C(=O)N[C@@H](C)C(=O)N[C@@H](C)C(=O)N[C@@H](Cc1ccccc1)C(=O)N[C@@H](C)C(=O)N[C@@H](C)C(=O)N[C@@H](C)C(=O)N[C@@H](CCCCN)C(=O)N[C@@H](CCCCN)C(=O)N[C@@H](CCCCN)C(=O)N[C@@H](CCCCN)C(N)=O", "note": "[Peptide F25] (H-KKAAAFAAAAAFAAWAAFAAAKKKK-NH2; N-terminus assumed)", "values": [{"measurement": "MIC C498", "setting": "[1]", "value": 8, "unit": "µM"}, {"measurement": "MIC C500", "setting": "[2]", "value": 4, "unit": "µM"}, {"measurement": "MIC C875", "setting": "[3]", "value": 0.25, "unit": "µM"}, {"measurement": "MIC C. xerosis C875", "setting": "[3]", "value": "<0.25", "unit": "µM"}, {"measurement": "MIC C621", "setting": "[4]", "value": "0.5 to 2", "unit": "µM"}, {"measurement": "MIC S. epidermidis C621", "setting": "[4]", "value": 2, "unit": "µM"}, {"measurement": "MIC E. coli DC2", "setting": "E. coli DC2; Table 3, Gram-negative", "value": 4, "unit": "µM"}, {"measurement": "MIC E. coli DC2", "setting": "E. coli DC2; Table 5A", "value": 4, "unit": "µM"}, {"measurement": "MIC E. coli UB1005", "setting": "E. coli UB1005", "value": 16, "unit": "µM"}, {"measurement": "MIC E. coli ATCC25922", "setting": "E. coli ATCC25922", "value": ">32", "unit": "µM"}, {"measurement": "MIC P. aeruginosa ATCC27853", "setting": "P. aeruginosa ATCC27853", "value": 8, "unit": "µM"}, {"measurement": "MIC S. aureus ATCC25923", "setting": "S. aureus ATCC25923", "value": ">32", "unit": "µM"}, {"measurement": "MIC E. faecalis ATCC29212", "setting": "E. faecalis ATCC29212", "value": ">32", "unit": "µM"}, {"measurement": "MIC B. subtilis ATCC6633", "setting": "B. subtilis ATCC6633", "value": 1, "unit": "µM"}, {"measurement": "Human RBC (% lysis) 50 μM", "setting": "Human RBC", "value": 0, "unit": "% lysis"}, {"measurement": "Human RBC (% lysis) 200 μM", "setting": "Human RBC", "value": 1, "unit": "% lysis"}, {"measurement": "Rabbit RBC (% lysis) 50 μM", "setting": "Rabbit RBC", "value": 0, "unit": "% lysis"}, {"measurement": "Rabbit RBC (% lysis) 200 μM", "setting": "Rabbit RBC", "value": 4, "unit": "% lysis"}]}
